Reference: ChEMBL document CHEMBL1201862, “PubChem BioAssay data set” (2004)
Active and inactive are the calls of the source.

Columns and labels:
[1] = target: T1, Leucine aminopeptidase (Plasmodium falciparum 3D7, UniProt Q8IL11); assay: P. falciparum M17LAP inhibitors, primary screen, biochemical, fluorogenic H-Leu-NHMec substrate, 1536-well (AID 1619); assay type: functional
T1 sequence (Q8IL11 whole entry): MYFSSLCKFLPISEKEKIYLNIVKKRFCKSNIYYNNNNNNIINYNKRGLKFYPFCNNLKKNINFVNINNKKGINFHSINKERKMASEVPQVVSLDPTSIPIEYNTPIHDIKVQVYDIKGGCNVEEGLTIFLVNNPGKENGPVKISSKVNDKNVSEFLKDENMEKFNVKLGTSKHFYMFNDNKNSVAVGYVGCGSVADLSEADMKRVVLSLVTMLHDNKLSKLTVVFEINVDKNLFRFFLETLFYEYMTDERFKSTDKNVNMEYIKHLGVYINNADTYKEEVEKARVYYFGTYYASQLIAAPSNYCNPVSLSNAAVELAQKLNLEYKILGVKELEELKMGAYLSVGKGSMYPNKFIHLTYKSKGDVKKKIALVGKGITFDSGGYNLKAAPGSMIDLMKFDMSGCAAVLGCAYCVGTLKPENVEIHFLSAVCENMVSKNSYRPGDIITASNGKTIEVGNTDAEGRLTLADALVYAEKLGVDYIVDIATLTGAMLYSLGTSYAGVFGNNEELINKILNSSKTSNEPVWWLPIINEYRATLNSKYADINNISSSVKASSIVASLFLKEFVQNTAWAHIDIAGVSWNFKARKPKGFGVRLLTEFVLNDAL

[2] = target: T2, E3 ubiquitin-protein ligase XIAP (Homo sapiens, UniProt P98170); assay: Counter Screen using XIAP-Bir3 for Chemical Antagonists of Bir1/2 domains of IAP-family anti-apoptotic proteins. [Related pubchem assays (depositor defined):AID1018, AID1449, AID1514, AID1638, AID1749, AID1750, AID488957, AID488963]
T2 sequence (P98170 whole entry): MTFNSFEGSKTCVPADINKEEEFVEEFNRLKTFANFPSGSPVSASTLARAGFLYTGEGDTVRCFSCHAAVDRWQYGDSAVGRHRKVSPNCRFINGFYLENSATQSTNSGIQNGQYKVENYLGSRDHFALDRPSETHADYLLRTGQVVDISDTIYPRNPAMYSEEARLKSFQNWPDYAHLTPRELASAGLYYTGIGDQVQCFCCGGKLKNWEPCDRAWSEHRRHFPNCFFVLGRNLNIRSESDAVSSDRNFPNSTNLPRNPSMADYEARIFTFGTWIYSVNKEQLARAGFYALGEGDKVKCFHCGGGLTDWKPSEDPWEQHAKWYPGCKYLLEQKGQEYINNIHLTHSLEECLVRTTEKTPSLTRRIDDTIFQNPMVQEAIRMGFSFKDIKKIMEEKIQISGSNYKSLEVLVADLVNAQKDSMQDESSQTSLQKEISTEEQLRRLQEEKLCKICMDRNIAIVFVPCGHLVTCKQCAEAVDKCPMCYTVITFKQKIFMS

[3] = target: T2, E3 ubiquitin-protein ligase XIAP; assay: XIAP antagonists, biochemical, IAP family, fluorescence polarization (AID 1018); assay type: functional
[4] = inhibitors of HIV Env-driven cell fusion, dose response, cherry-pick (AID 652057); assay type: functional, cell-based
[5] = ZM109 Env clade C HIV-1 fusion inhibitors, dose response, HeLa effector, CEM target cells, luciferase, cherry-pick (AID 652058); assay type: functional, cell-based
[6] = off-target signal loss in HeLa-CEM21 co-culture – HeLa F-luc CTL cells, cherry-picked, counter-screen for HIV-1 Env fusion inhibitor project, dose response (AID 652040); assay type: functional, cell-based;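 further: potency for signal decrease marking cytotoxic or nonspecific inhibition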
[7] = inhibitors of clade B AD8 Env fusion, dose response, cell-based, cherry-pick (AID 652062); assay type: functional;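 further: luciferase signal from cell-cell fusion driven by HIV-1 clade B AD8 Env; potency is for inhibitors of fusion seen as a drop in luminescence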
[8] = target: Voltage-dependent T-type calcium channel subunit alpha-1H (Homo sapiens, UniProt O95180); assay type: functional;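 further: channel activity triggered by adding a high calcium stimulation buffer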
Chain of Voltage-dependent T-type calcium channel subunit alpha-1H (O95180 whole entry): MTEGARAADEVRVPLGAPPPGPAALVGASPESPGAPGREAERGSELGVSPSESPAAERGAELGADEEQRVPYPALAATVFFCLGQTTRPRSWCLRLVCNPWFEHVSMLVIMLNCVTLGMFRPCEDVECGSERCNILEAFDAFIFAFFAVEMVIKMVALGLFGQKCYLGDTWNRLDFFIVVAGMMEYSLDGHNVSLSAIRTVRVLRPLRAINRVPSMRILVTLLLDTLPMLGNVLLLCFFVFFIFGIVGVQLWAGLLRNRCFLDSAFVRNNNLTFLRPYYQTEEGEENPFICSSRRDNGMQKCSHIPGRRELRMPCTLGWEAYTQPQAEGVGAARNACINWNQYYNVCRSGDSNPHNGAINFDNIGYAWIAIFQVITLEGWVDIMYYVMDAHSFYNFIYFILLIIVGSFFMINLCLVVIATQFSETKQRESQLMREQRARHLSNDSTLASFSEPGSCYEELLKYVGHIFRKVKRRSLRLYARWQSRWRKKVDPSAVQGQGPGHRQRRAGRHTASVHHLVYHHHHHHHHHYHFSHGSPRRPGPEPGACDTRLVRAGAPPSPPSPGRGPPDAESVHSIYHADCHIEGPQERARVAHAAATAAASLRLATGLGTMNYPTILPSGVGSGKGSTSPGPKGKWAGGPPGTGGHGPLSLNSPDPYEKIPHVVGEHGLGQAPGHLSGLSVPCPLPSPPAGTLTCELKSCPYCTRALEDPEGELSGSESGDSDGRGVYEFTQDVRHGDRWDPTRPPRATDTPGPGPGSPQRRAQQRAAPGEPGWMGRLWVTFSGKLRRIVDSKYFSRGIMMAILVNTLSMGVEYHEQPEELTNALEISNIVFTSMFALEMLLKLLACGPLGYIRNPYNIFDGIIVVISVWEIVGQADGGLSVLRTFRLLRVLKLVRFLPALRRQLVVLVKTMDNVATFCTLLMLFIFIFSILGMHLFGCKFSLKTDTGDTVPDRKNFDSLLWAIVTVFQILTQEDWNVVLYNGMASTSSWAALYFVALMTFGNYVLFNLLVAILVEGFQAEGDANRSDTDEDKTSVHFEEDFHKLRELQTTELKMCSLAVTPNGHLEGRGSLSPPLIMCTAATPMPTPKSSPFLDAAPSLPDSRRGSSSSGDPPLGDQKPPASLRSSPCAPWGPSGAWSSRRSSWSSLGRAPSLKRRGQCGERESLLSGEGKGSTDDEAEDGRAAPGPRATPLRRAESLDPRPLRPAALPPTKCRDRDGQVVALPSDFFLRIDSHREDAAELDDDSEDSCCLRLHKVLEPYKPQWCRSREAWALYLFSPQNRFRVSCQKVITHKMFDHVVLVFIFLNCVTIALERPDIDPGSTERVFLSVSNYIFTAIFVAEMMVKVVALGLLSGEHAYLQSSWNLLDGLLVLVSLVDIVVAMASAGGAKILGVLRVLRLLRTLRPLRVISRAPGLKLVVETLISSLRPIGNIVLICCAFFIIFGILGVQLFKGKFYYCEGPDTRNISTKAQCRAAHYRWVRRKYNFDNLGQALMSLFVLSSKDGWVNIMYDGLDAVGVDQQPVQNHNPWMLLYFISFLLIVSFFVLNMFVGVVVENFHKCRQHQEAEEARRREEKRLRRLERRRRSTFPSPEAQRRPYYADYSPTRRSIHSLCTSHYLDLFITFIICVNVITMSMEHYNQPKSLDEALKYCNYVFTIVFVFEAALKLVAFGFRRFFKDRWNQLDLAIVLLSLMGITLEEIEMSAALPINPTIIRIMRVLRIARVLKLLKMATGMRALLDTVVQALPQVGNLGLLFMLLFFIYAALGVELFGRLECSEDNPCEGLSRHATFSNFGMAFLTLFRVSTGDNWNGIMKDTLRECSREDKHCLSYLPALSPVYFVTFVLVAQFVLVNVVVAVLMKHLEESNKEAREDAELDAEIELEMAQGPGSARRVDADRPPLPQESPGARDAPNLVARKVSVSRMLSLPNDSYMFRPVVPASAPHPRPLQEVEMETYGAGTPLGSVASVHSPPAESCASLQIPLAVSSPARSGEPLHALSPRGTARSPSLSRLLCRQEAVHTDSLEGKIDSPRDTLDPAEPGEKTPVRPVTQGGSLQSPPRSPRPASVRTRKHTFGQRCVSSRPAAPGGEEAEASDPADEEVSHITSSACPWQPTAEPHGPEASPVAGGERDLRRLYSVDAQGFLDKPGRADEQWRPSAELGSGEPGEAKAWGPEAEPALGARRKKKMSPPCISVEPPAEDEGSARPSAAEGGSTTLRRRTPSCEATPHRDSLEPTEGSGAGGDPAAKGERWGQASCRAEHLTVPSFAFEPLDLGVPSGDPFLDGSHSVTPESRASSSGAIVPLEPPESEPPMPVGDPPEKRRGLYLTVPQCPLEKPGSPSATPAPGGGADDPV

[9] = target: Beta-lactamase (Salmonella choleraesuis (strain SC-B67), UniProt Q5J463); assay: Epi-absorbance-based counterscreen for selective VIM-2 inhibitors: dose response biochemical high throughput screening assay to identify inhibitors of TEM-1 serine-beta-lactamase.
Chain of Beta-lactamase (Salmonella choleraesuis (strain SC-B67), UniProt Q5J463) (Q5J463 whole entry): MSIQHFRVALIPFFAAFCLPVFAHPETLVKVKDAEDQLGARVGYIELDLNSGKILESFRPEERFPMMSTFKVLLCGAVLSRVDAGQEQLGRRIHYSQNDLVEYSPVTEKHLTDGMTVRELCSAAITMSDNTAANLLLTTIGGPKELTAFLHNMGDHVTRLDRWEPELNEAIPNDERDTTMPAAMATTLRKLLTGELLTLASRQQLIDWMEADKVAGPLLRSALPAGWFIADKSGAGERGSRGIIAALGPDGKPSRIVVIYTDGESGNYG

[10] = target: T3, Beta-lactamase (Pseudomonas aeruginosa, UniProt Q79MP6); assay: IMP-1 metallo-beta-lactamase inhibitors, dose response, selectivity assay for VIM-2 inhibitor project, biochemical, epi-absorbance (AID 1920)
T3 sequence (Q79MP6 whole entry): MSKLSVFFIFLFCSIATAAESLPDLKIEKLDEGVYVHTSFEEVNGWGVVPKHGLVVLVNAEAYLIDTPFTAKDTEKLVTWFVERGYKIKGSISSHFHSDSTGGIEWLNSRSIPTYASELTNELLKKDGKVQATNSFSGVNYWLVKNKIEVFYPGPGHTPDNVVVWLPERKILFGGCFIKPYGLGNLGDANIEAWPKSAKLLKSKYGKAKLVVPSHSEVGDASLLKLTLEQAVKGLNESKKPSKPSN

[11] = target: T3, Beta-lactamase; assay: […] counterscreen for selective VIM-2 inhibitors: dose response biochemical high throughput screening assay to identify inhibitors of IMP-1 metallo-beta-lactamase.
[12] = target: Large T antigen (Simian virus 40, UniProt P03070); assay type: functional, Betapolyomavirus macacae;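 further: Confirmatory-stage PubChem screen for compounds that inhibit SV40 T antigen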
[13] = target: Induced myeloid leukemia cell differentiation protein Mcl-1 (Homo sapiens, UniProt Q07820); assay type: functional
Chain of Induced myeloid leukemia cell differentiation protein Mcl-1 (Q07820 whole entry): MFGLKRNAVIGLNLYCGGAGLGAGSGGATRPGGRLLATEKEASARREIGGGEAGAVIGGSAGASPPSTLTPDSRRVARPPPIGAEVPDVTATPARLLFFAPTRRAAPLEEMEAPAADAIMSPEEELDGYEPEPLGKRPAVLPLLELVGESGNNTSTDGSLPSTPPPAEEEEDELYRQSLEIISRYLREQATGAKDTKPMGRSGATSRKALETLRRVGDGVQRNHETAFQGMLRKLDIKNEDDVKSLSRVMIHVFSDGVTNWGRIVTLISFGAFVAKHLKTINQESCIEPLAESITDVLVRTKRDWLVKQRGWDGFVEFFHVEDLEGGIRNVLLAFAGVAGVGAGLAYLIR

[14] = target: E3 ubiquitin-protein ligase Mdm2 (Homo sapiens, UniProt Q00987); assay: enhancers of MDM2-luciferase reporter signal, concentration-effect titration, project on inhibitors of MDM2 ubiquitin ligase, cellular assay, luminescent readout, 384-well plate format (AID 1394); assay type: functional;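 further: MDM2 E3 inhibitors raise luminescence so EC50 is for signal enhancement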
Chain of E3 ubiquitin-protein ligase Mdm2 (Q00987 whole entry): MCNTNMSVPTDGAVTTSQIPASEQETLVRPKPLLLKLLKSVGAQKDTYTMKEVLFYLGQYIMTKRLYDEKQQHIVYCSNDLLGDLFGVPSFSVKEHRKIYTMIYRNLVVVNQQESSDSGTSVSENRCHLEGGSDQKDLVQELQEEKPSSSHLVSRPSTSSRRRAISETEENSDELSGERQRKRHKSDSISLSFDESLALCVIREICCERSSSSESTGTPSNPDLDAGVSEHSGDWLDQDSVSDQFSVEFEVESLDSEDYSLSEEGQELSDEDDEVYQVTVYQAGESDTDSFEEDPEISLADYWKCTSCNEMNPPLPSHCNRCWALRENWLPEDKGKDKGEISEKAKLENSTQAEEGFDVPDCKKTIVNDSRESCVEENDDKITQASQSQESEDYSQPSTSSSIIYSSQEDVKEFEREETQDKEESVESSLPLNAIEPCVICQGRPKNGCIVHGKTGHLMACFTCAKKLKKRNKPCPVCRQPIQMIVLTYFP

[15] = tested on: BJ; assay: cytotoxicity toward BJ-TERT fibroblasts, dose response, cell-based, RAS-independent, luminescence (AID 1933); assay type: functional; conditions: Homo sapiens
[16] = tested on: BJ; assay: cells; assay type: functional, cell-based; conditions: Homo sapiens
[17] = tested on: BJ; assay: cytotoxicity toward BJ-TERT-LT-ST fibroblasts, dose response, cell-based, RAS-independent, luminescence (AID 1935); assay type: functional; conditions: Homo sapiens;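 further: BJ fibroblasts immortalized with TERT plus LT and ST oncogenes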
[18] = cytotoxicity toward DRD oncogenic fibroblasts, dose response, cell-based, non-viral oncogenic, luminescence (AID 1934); assay type: functional; conditions: Homo sapiens
[19] = cytotoxicity in HEK-293T cells, dose response, cytotoxicity control for TCR NF-kB inhibitor project, luminescence, T-cell screen hits (AID 489026); assay type: functional, cell-based;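 further: cells exposed to compound about 14 hours before the viability readout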
[20] = target: Nonstructural protein 1 (Influenza A virus, UniProt Q194T2); assay type: functional, Influenza A virus (A/California/07/2009(H1N1))
Chain of Nonstructural protein 1 (Q194T2 whole entry): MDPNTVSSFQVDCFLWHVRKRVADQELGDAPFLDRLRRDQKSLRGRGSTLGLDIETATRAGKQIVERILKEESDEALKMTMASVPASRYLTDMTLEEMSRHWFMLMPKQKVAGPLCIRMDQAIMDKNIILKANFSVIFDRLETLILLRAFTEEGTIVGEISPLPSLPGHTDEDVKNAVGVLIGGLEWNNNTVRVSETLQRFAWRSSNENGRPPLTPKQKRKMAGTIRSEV

[21] = NIH-3T3 fibroblast cytotoxicity, dose response, cytotoxicity control, cell-based, fluorescence, Alamar Blue, secondary assay (AID 2327); assay type: functional;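 further: NIH-3T3 mouse fibroblasts cultured with fluconazole at 8 µg/mL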
[22] = A Cell Based Secondary Assay To Explore Cytotoxicity of Compounds that Sensitize Mycobacterium Tuberculosis to Beta-Lactam Antibiotics.; assay type: functional
[23] = C. albicans growth with fluconazole, confirmation, fluorescence, retest (AID 2467); assay type: functional, cell-based
[24] = target: T4, Carboxy-terminal domain RNA polymerase II polypeptide A small phosphatase 1 (Homo sapiens, UniProt Q9GZU7); assay: inhibitors of CTDSP1, concentration-response testing, biochemical assay, absorbance-based, actives from ultra-high-throughput screening (AID 540297); assay type: functional
T4 sequence (Q9GZU7 whole entry): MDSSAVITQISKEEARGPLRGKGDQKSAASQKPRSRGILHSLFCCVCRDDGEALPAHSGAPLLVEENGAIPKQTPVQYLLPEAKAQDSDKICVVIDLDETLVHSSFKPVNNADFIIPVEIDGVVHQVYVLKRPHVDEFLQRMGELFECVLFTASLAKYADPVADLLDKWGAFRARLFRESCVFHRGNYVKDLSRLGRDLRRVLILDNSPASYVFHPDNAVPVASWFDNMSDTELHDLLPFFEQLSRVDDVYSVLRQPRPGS

[25] = P. falciparum 3D7-ScDHODH growth inhibitors, dose response, SYBR Green, dry powder samples (AID 1159570); assay type: functional, cell-based;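 further: parasite growth measured after 72 hours of compound exposure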
[26] = HepG2 cell cytotoxicity, dose response, cytotoxicity control, plate reader, dry powder samples (AID 1159569); assay type: functional, cell-based;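 further: inhibitor potency with signal falling toward the positive control level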
[27] = P. falciparum Dd2 growth inhibitors, dose response, SYBR Green, cherry-picked samples (AID 1159567); assay type: functional, cell-based
[28] = P. falciparum Dd2 growth inhibitors, dose response, SYBR Green, dry powder samples (AID 1159566); assay type: functional, cell-based;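 further: potency for growth inhibition with lower SYBR green DNA signal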
[29] = P. falciparum ATP4 D1247Y mutant growth inhibitors, dose response, NITD609-resistant line, SYBR Green, dry powder (AID 1159571); assay type: functional, cell-based;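 further: parasites synchronized at ring stage by sorbitol before testing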
[30] = target: T5, Alkaline phosphatase, tissue-nonspecific isozyme (Homo sapiens, UniProt P05186); assay: human TNAP enzyme inhibitors, SAR follow-up, biochemical, luminescent, dose response (AID 1056)
T5 sequence (P05186 whole entry): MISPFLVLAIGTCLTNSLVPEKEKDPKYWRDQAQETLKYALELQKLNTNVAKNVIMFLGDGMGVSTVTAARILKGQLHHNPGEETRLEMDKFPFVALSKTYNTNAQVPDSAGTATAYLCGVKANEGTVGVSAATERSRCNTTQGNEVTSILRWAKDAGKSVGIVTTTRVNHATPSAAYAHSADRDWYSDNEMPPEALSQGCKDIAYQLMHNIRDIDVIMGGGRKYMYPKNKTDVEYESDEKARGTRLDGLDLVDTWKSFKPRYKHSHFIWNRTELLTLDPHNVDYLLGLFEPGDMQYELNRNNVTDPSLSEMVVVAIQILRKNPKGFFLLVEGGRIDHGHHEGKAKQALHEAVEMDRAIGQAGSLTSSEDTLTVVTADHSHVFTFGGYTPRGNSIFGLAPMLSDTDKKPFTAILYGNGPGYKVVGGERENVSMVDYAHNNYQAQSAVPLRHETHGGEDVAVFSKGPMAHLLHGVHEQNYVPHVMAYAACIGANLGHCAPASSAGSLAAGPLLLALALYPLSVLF

Cc1ccccc1NC(=O)CSc1nc(O)cc(C)c1C#N
IC50 [1]: 10.9 µM (active)

CCn1c(=O)cc(OCC(=O)NCCC(C)C)c2ccccc21
IC50 [2]: > 100 µM (inactive) | IC50 [3]: > 100 µM (not active)

O=c1c2ccccc2nc(CN2CCCCCC2)n1-c1ccc(F)cc1
AC50 [4]: 20.9 µM (active) | AC50 [5]: 30.2 µM (active) | AC50 [6]: 10.1 µM (active) | AC50 [7]: 50.6 µM (active)

CCC12CN3CCN(CC(C3)C1O)C2 (stereo not given)
IC50 [2]: > 100 µM (inactive) | IC50 [3]: > 100 µM (not active)

Cc1cccc(NC(=O)CSc2nnc(NC(=O)CN3CCOCC3)s2)c1
IC50 [1]: 14 µM (active)

O=C(Nc1ccc2c(c1)OCO2)C1CCN(Cc2cnn(-c3ccccc3)c2-n2cccc2)CC1
EC50 [8]: 5.88 µM (active)

Cc1cccc(C2c3[nH]c4ccccc4c3CCN2C(=O)c2cc(CC(C)C)nc(=O)[nH]2)n1 (stereo not given)
IC50 [9]: > 59.6 µM (inactive) | IC50 [10]: > 59.6 µM (inactive) | IC50 [11]: > 59.6 µM (inactive)

CCOC(=O)c1c(NC(C)=O)sc2c(O)c(Br)cc(Br)c12
IC50 [12]: 56.7 µM (active) | IC50 [13]: 4.76 µM (active)

Cc1ccc(-c2nc(NC(=O)CSc3ccc4ccccc4n3)ns2)cc1
IC50 [2]: > 100 µM (inactive) | IC50 [3]: > 100 µM (not active)

Cc1oc(-c2ccccc2)nc1Cn1cccc1C1=NC(c2ccccc2)CO1 (stereo not given)
EC50 [8]: 7.51 µM (active)

CCSc1nc2ccccc2n1C(=O)/C=C\c1ccc(OC)c(OC)c1
EC50 [14]: 0.24 µM (active) | EC50 [15]: 4.41 µM (inconclusive) | EC50 [16]: 8.04 µM (active) | EC50 [17]: 5.15 µM (inconclusive) | EC50 [18]: 4.6 µM (inconclusive) | IC50 [19]: > 80 µM (inactive)

Cc1ccc(Cl)cc1N1CCN(Cc2nnnn2Cc2ccco2)CC1
EC50 [8]: 0.633 µM (active)

CCOc1c(C)cnc2c1c(=O)n(Cc1ccc(Cl)cc1)c(=O)n2C
AC50 [4]: 7.77 µM (active) | AC50 [5]: 12.1 µM (active) | AC50 [6]: 12.5 µM (active) | AC50 [7]: 8.07 µM (active)

Cc1cccc(Nc2nnc(SCC3CCCCO3)s2)c1C (stereo not given)
EC50 [14]: 12.4 µM (not active)

COC(=O)c1ccc(Cl)c(NC(=O)CSc2nnc[nH]2)c1
IC50 [1]: 35.1 µM (active)

COc1ccc(C2=NS(=O)(=O)N(C)C(C(=O)Nc3ccc4c(c3)OCO4)=C2)cc1OC
IC50 [20]: > 100 µM (active)

CCC1(C(=O)OC)CCc2c(cc(OC)c3ccccc23)C1=O (stereo not given)
IC50 [13]: > 54 µM (not active)

Cn1c(-c2sccc2OCc2ccc(Cl)cc2Cl)n[nH]c1=S
IC50 [9]: > 59.6 µM (inactive) | IC50 [10]: > 59.6 µM (inactive) | IC50 [11]: > 59.6 µM (inactive)

CC1CCN(S(=O)(=O)c2ccc(NN=C(C#N)C#N)cc2)CC1
EC50 [8]: 1.52 µM (active)

CCCCCn1c(=O)c(C(=O)NCc2ccncc2)c(O)c2ccccc21
EC50 [21]: > 150 µM (inactive) | CC50 [22]: 14.7 µM (active) | EC50 [23]: > 38 µM (not active)

COc1ccc(NC(=O)C(=O)NCC2CCCN2S(=O)(=O)c2cccs2)cc1 (stereo not given)
IC50 [19]: > 80 µM (inactive) | AC50 [6]: > 70 µM (inactive)

O=c1/c(=C/c2ccc(O)c([N+](=O)[O-])c2)sc2nc3ccccc3n12
IC50 [13]: 3.94 µM (active) | IC50 [24]: 1.83 µM (active)

COc1ccccc1-c1cccc(-c2nc(C(=O)Nc3nccs3)cc3c2[C@H](CCO)N(C(C)=O)C3)c1
AC50 [25]: 3.93 µM (active) | AC50 [26]: 66.8 µM (active) | AC50 [27]: 2.15 µM (active) | AC50 [28]: 2.08 µM (active) | AC50 [29]: 1.96 µM (active)

C/C(=N\NC(=O)c1ccccc1O)c1ccc(Br)s1
CC50 [22]: 24.4 µM (active)

COc1cc(/C=N/Nc2cc(C)nc(NS(=O)(=O)c3ccc(C)cc3)n2)ccc1O
IC50 [2]: > 100 µM (inactive) | IC50 [3]: > 100 µM (not active)

Cc1cc(C)nc(N/N=C/c2c(CO)cnc(C)c2O)n1
IC50 [20]: 20.2 µM (active)

O=C(c1cccc(F)c1)N1CC(=O)N2[C@H](CO)[C@H](c3ccc(-c4cccnc4)cc3)[C@H]2C1
AC50 [25]: 0.198 µM (active) | AC50 [26]: > 100 µM (inactive) | AC50 [27]: 0.326 µM (active) | AC50 [28]: 0.133 µM (active) | AC50 [29]: 0.186 µM (active)

O=C(Nc1ccc(C(F)(F)F)cc1)N1[C@@H]2CNC[C@H]1[C@H]2c1ccc(/C=C/c2ccccc2)cc1
AC50 [25]: 1.76 µM (active) | AC50 [26]: 66.2 µM (active) | AC50 [27]: 2.46 µM (active) | AC50 [28]: 1.4 µM (active) | AC50 [29]: 1.52 µM (active)

Cc1cc(C)nc(NCc2ccc(O)c(O)c2)n1
IC50 [30]: 27 µM (active)
